According to ChEMBL document CHEMBL1150306, “2-Trifluoroacetylthiophenes, a novel series of potent and selective class II histone deacetylase inhibitors” (Bioorg Med Chem Lett, 2008):

Columns and labels:
Histone deacetylase 1 = Histone deacetylase 1 (Homo sapiens, UniProt Q13547); experiment: Inhibition of HDAC1
Histone deacetylase 3 [1] = target: T1, Histone deacetylase 3 (Homo sapiens, UniProt O15379); experiment: Inhibition of HDAC3 at 5 uM
[2] = target: T2, Protein deacetylase HDAC6 (Homo sapiens, UniProt Q9UBN7); experiment: Inhibition of HDAC6
T2 sequence (Q9UBN7 whole entry): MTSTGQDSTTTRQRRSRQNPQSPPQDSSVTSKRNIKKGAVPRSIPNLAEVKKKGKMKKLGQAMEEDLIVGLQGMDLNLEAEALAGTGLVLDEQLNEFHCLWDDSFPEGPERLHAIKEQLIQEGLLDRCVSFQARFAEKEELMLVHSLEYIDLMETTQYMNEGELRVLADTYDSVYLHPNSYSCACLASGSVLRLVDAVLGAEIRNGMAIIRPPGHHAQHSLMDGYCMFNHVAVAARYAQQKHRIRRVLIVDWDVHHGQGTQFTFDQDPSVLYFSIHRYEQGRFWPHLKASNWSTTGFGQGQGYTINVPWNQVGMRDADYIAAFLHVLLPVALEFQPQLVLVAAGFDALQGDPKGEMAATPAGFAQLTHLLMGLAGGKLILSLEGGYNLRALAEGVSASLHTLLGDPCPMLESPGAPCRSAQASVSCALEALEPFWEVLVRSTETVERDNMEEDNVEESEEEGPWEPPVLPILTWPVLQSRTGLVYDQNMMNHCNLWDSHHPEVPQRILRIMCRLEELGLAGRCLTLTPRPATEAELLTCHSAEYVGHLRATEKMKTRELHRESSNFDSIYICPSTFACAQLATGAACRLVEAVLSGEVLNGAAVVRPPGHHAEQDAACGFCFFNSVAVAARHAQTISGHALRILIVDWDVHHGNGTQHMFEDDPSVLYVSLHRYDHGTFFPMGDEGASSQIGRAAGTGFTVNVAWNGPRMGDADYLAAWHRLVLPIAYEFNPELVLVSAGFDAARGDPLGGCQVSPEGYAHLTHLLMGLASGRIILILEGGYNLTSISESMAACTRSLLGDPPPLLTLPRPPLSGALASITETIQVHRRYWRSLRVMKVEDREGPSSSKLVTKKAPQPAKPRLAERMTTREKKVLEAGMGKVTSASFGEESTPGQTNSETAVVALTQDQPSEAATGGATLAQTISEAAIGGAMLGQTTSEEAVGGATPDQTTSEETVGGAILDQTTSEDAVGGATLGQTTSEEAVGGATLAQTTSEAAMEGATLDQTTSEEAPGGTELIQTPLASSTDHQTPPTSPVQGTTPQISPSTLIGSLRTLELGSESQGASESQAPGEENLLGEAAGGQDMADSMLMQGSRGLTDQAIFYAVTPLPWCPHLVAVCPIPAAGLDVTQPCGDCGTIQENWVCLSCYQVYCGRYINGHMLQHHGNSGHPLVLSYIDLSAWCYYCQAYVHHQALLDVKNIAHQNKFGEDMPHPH

Histone deacetylase 4 [3] = target: Histone deacetylase 4 (Homo sapiens, UniProt P56524); experiment: Inhibition of wild type HDAC4 expressed in Escherichia coli
Histone deacetylase 4 [4] = target: Histone deacetylase 4 (Homo sapiens, UniProt P56524, H976Y); experiment: Inhibition of HDAC4GOF mutant expressed in Escherichia coli
Histone deacetylase 3 [5] = target: T1, Histone deacetylase 3; experiment: Inhibition of HDAC3
[6] = target: T3, Protein deacetylase HDAC6 (Homo sapiens) (UniProt Q9UBN7); experiment: Inhibition of HDAC6 at 9 nM
T3 sequence (whole entry): T2 sequence (Q9UBN7 whole entry)

Tubulin = experiment: Inhibition of tubulin deacetylation in human HCT116 cells; assay type: cell-based; conditions: hct-116

Histone deacetylase 4 (Homo sapiens, UniProt P56524), sequence (P56524 whole entry): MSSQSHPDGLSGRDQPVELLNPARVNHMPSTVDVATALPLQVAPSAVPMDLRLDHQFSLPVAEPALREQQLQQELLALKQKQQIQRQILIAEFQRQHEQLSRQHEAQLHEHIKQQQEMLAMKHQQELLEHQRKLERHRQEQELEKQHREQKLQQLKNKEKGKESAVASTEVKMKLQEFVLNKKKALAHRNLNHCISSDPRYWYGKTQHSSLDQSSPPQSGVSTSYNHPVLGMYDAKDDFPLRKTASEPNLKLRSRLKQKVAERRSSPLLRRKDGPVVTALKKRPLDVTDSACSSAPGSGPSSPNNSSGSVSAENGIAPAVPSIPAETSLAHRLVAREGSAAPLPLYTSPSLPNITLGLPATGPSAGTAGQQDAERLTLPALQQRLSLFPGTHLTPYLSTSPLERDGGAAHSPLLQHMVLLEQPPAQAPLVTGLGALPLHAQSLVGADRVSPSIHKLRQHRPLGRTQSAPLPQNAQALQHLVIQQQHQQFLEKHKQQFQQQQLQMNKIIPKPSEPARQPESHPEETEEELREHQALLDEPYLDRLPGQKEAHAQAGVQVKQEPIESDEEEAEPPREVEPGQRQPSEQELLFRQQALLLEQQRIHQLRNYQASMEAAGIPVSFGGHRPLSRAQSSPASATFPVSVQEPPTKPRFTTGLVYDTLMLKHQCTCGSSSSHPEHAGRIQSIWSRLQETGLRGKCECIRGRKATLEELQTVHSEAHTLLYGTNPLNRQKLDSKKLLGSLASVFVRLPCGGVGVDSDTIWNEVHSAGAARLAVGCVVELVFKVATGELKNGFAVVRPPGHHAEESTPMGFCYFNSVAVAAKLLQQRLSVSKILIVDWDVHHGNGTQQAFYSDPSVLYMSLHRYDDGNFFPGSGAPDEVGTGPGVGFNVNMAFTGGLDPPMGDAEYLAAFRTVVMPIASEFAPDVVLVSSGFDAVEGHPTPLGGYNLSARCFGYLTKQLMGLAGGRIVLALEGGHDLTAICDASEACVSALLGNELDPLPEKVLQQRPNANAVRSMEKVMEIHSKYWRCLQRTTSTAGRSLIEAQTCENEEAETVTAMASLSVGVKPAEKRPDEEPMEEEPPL
T1 sequence (O15379 whole entry): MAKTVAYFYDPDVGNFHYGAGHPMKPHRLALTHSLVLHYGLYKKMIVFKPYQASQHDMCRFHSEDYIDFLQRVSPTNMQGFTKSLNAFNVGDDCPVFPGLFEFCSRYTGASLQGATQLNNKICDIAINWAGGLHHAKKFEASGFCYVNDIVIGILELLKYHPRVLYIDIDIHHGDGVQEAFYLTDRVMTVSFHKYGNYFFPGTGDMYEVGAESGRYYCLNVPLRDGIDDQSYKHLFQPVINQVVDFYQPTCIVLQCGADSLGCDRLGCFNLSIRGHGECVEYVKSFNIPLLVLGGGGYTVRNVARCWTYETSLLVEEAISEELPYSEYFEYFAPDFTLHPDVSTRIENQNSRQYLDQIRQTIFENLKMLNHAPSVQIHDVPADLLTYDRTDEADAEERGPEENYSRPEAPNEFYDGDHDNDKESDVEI
Histone deacetylase 4 (Homo sapiens, UniProt P56524, H976Y), sequence (P56524 whole entry H976Y): as the sequence (P56524 whole entry) above, with H976Y counted along it
Histone deacetylase 1, sequence (Q13547 whole entry): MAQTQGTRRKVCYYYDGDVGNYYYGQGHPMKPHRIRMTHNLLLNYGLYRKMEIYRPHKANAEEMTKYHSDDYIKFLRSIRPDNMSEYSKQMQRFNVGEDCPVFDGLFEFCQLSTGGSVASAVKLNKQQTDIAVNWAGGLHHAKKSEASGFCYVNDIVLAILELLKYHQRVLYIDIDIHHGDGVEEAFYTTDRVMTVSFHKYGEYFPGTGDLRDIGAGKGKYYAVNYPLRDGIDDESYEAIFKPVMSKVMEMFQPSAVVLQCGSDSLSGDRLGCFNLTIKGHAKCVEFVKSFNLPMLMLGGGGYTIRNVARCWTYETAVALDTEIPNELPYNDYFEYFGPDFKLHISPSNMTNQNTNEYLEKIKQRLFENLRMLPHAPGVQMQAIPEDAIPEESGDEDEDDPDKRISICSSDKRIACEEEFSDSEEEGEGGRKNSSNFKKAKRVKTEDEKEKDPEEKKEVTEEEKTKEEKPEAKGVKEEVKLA

| IC50 (Histone deacetylase 1) [nM] | inhibition (Histone deacetylase 3 [1]) [%] | IC50 [2] [nM] | IC50 (Histone deacetylase 4 [3]) [nM] | IC50 (Histone deacetylase 4 [4]) [nM] | IC50 (Histone deacetylase 3 [5]) [nM] | inhibition [6] [%] | IC50 (Tubulin) [nM] | SMILES |
| --- | --- | --- | --- | --- | --- | --- | --- | --- |
| 5500 | 44 | 310 | 320 | 370 |  |  |  | O=C(c1ccc(C(=O)C(F)(F)F)s1)N1CCn2c(-c3ccccc3)cnc2C1 |
|  |  |  | 2700 | 100 | 10 | 94 |  | C[C@@H](NC(=O)c1ccc(C(=O)NO)s1)c1ccccc1 |
| 580 |  | 89 | 98 | 87 | 670 |  | 12000 | CN(Cc1ccc2nccnc2c1)C(=O)c1ccc(C(=O)C(F)(F)F)s1 |
